Tested on: LPS-induced TNFα in monocyte-derived macrophages (MdM)
Experiment: MdM assay: LPS-triggered TNFα (ELISA)
Format: cell-based, human
Details: Homo sapiens, Macrophage, 20 h, monocyte-derived macrophages, LPS 200 ng/mL, supernatant after 20 h; read-out: TNFα EC50
How it was run: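 Human monocyte-derived macrophages from CD14+ bead-selected buffy-coat PBMCs, used on day 10, pre-treated with compound for 1 h at 37 °C (0.2% DMSO), then stimulated with 200 ng/mL LPS. Supernatant taken after 20 h for TNFα sandwich ELISA (IL-10 at 2 h).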

| SMILES | EC50 |
| --- | --- |
| COc1cc(-c2cnc3cc(OCCN4CCCCC4)ccn23)cc(OC(F)F)c1C(=O)NC1CC1 [compound 10, N-cyclopropyl-2-(difluoromethoxy)-6-methoxy-4-[7-[2-(1-piperidyl)ethoxy]imidazo [1,2-a]pyridin-3-yl]benzamide] | 0.1 to 100 nM |
| COc1cc(-c2cnc3cc(OC[C@H]4CCCCN4C)ccn23)cc(OC(F)F)c1C(=O)NC1CC1 [compound 111, N-cyclopropyl-2-(difluoromethoxy)-6-methoxy-4-[7-[[(2R)-1-methyl-2-piperidyl]methoxy]imidazo[1,2-a]pyridin-3-yl]benzamide] | 100 to 1000 nM |
| COc1cc(-c2cnc3cc(OC[C@H]4CCCN4C)ccn23)cc(OC(F)F)c1C(=O)NC1CC1 [compound 81, N-cyclopropyl-2-(difluoromethoxy)-6-methoxy-4-[7-[[(2R)-1-methylpyrrolidin-2-yl]methoxy]imidazo[1,2-a]pyridin-3-yl]benzamide] | 100 to 1000 nM |
| CCN1CCCCC1COc1ccn2c(-c3cc(OC)c(C(=O)NC4CC4)c(OC(F)F)c3)cnc2c1 (stereo not drawn) [compound 83, N-cyclopropyl-2-(difluoromethoxy)-4-[7-[(1-ethyl-2-piperidyl)methoxy]imidazo [1,2-a]pyridin-3-yl]-6-methoxy-benzamide] | 100 to 1000 nM |
| CN(C)CCOc1ccn2c(-c3cc(OC(F)F)c(C(=O)NC4CC4)c(OC(F)F)c3)cnc2c1 [compound 156, N-cyclopropyl-2,6-bis(difluoromethoxy)-4-[7-[2-(dimethylamino)ethoxy]imidazo[1,2-a]pyridin-3-yl]benzamide] | 100 to 1000 nM |
| CCNCCOc1ccn2c(-c3cc(OC)c(C(=O)NC4CC4)c(OC(F)F)c3)cnc2c1 [compound 37, N-cyclopropyl-2-(difluoromethoxy)-4-[7-[2-(ethylamino)ethoxy]imidazo[1,2-a]pyridin-3-yl]-6-methoxy-benzamide] | 100 to 1000 nM |
| COc1cc(-c2cnc3cc(OCC(C)(C)N)ccn23)cc(OC(F)F)c1C(=O)NC1CC1 [compound 104, 4-[7-(2-amino-2-methyl-propoxy)imidazo[1,2-a]pyridin-3-yl]-N-cyclopropyl-2-(difluoromethoxy)-6-methoxy-benzamide] | 1000 to 5000 nM |

The next lines start with the values.

| EC50 | SMILES |
| --- | --- |
| 100 to 1000 nM | COc1cc(-c2cnc3cc(OCCN(C)C)ccn23)cc2c1C(=O)N(CC(F)(F)F)CC2 [Cpd 18, 6-[7-[2-(dimethylamino)ethoxy]imidazo[1,2-a]pyridin-3-yl]-8-methoxy-2-(2,2,2-trifluoroethyl)-3,4-dihydroisoquinolin-1-one] |
| 1000 to 5000 nM | COc1cc(-c2cnc3cc(OCCN4CCS(=O)(=O)CC4)ccn23)cc2c1C(=O)N(CC(F)(F)F)CC2 [compound 41, 6-[7-[2-(1,1-dioxo-1,4-thiazinan-4-yl)ethoxy]imidazo[1,2-a]pyridin-3-yl]-8-methoxy-2-(2,2,2-trifluoroethyl)-3,4-dihydroisoquinolin-1-one] |
| > 5000 nM | CNc1cc(-c2cnc3cc(OCCN(C)C)ccn23)cc2c1C(=O)N(CC(F)(F)F)CC2 [compound 167, 6-[7-[2-(dimethylamino)ethoxy]imidazo[1,2-a]pyridin-3-yl]-8-(methylamino)-2-(2,2,2-trifluoroethyl)-3,4-dihydroisoquinolin-1-one] |
| 100 to 1000 nM | COc1cc(-c2cnc3cc(OCc4cnco4)ccn23)cc2c1C(=O)N(CC(F)(F)F)CC2 [compound 126, 8-methoxy-6-[7-(oxazol-5-ylmethoxy)imidazo[1,2-a]pyridin-3-yl]-2-(2,2,2-trifluoroethyl)-3,4-dihydroisoquinolin-1-one] |
| 100 to 1000 nM | CN(C)CCOc1ccn2c(-c3cc4c(c(OC(F)F)c3)C(=O)N(CC(F)F)CC4)cnc2c1 [Cpd 150, 2-(2,2-difluoroethyl)-8-(difluoromethoxy)-6-[7-[2-(dimethylamino)ethoxy]imidazo[1,2-a]pyridin-3-yl]-3,4-dihydroisoquinolin-1-one] |
